Results taken from patent US9592407B2, “Pharmaceutical composition and uses thereof” (CHANG GUNG MEMORIAL HOSPITAL, LINKOU, priority 2012, dated 2017).
Like-named read-outs stand apart in the source and are kept apart here. Values belong to the compound of their own block, whether it stands above or below them.

What was measured:
[1] = system: BAX; assay: BAX mitochondrial translocation and oligomerization in liver cancer cells (Example 4); assay type: cell-based, Human; details: Hep3B and Mahlavu cells
Description: FIG. 6A illustrates the expression of NPM and BAX in the cytosol and the mitochondria of Mahlavu liver cancer cells following UV irradiation with or without transfected siRNA targeting NPM (NPM) or siRNA with scrambled sequences (NS). FIG. 6B illustrates the effect of siNPM and siNS on BAX dimmers (indicated with an asterisk) and BAX oligomers (twin-asterisk) in the mitochondria or the nuclei.
FIG. 6A illustrates cytoplasmic NPM increased after UV irradiation, whereas BAX increased in the cytosol and mitochondria after UV irradiation. Suppressing NPM expression by siRNA reduced the cytosolic BAX, while mitochondrial BAX level increased. […] Prohibitin (PHB) and glyceraldehyde 3-phosphate dehydrogenase (GAPDH) were used as the markers for mitochondrial and cytosolic components, respectively. Similar result for mitochondrial BAX enhancement was observed by inhibiting NPM with chemotherapeutic agents, such as staurosporin in Hep3B and Mahlavu cells.
A non-reducing condition for preparing cellular proteins was employed to validate the above findings.

[2] = system: NPM; assay: Induction of NPM expression by cellular stresses (Example 2); assay type: cell-based, Human; details: HCC cell lines following exposure; cisplatin 5.5, 69, 6.4 μg/ml, doxorubicin 1.4, 8.8, 5 μg/ml
Description: (§1) A subset of NPM was translocated to cytoplasm 6 hr after UV irradiation (indicated by an arrow in the right panel).
(§2) The expression of β-actin was used as the loading control. Simultaneous induction of BAX (pro-apoptosis) and NPM (anti-apoptosis) of cells upon cellular stress represents counteracting mechanisms regulating apoptosis versus survival response.

[3] = system: BAX; assay: Induction of BAX expression by cellular stresses (Example 2); assay type: cell-based, Human; details: all three HCC cell lines following treatment
Description: as §1, §2

[4] = system: HeLa (Cervical); assay: Combination drug treatment, Combination Index and IC50 (Example 6); assay type: cell-based
Description: (§3) Chou: Theoretical Basis, Experimental Design, and Computerized Simulation of Synergism and Antagonism in Drug Combination Studies, Pharmacological Reviews.

[5] = system: Mahlavu (HCC); assay: as above; assay type: cell-based, Human
Description: as §3

[6] = concentration of the named drug in Lapatinib + NSC348884 combination therapy, 72 hours, read-out: IC50 Combination Therapy
[7] = monotherapy, 72 hours after exposure, read-out: IC50 Monotherapy
[8] = Homo sapiens, concentration of the named drug in Lapatinib + NSC348884 combination therapy, 72 hours, read-out: IC50 Combination Therapy
[9] = Homo sapiens, monotherapy, 72 hours after exposure, read-out: IC50 Monotherapy

SMILES: CN[C@@H]1C[C@H]2O[C@@](C)([C@@H]1OC)n1c3ccccc3c3c4c(c5c6ccccc6n2c5c31)C(=O)NC4 [staurosporin]
- mitochondrial BAX [1]: enhancement

SMILES: COc1cccc2c1C(=O)c1c(O)c3c(c(O)c1C2=O)C[C@@](O)(C(=O)CO)C[C@@H]3O[C@H]1C[C@H](N)[C@H](O)[C@H](C)O1 [doxorubicin]
- NPM expression [2]: upregulated
- BAX expression [3]: increased

- IC50 [4, 6]: 4.92 µM
- IC50 [4, 7]: 6.24 µM
- IC50 [5, 6]: 3.84 µM
- IC50 [5, 7]: 6.15 µM
SMILES: Cc1ccc2nc(CN(CCN(Cc3nc4ccc(C)cc4[nH]3)Cc3nc4ccc(C)cc4[nH]3)Cc3nc4ccc(C)cc4[nH]3)[nH]c2c1 [NSC348884]

- IC50 [4, 8]: 18.4 µM
- IC50 [4, 9]: 20.8 µM
- IC50 [5, 8]: 14.4 µM
- IC50 [5, 9]: 12.8 µM
SMILES: CS(=O)(=O)CCNCc1ccc(-c2ccc3ncnc(Nc4ccc(OCc5cccc(F)c5)c(Cl)c4)c3c2)o1 [Lapatinib]

SMILES: N.N.[Cl][Pt][Cl] [cisplatin]
- NPM expression [2]: upregulated
- BAX expression [3]: increased
